The text below walks through data of patent US6288265A, “Phloroglucidic acid and derivatives as antibacterial agents” (National Science Council, priority 1999, dated 2001).

SMILES strings stand for the structures. In brackets after ≈: the same amount, converted by molar mass. Entries after “also recorded” stand apart in the source; their conditions may differ.

Data set [1] has as its target T1, β-lactamase of S. aureus 95 (Staphylococcus aureus, UniProt P00807).
T1 construct: chromogenic cephalosporin (nitrocefin type) hydrolysis
Put plainly: Minimum protective concentration against β-lactamase of S. aureus 95. In kind it is biochemical. Conditions: protection of chromogenic cephem indicator from hydrolysis within 40 min, average of duplicates. The source says: (§1) Determination of Minimum Protective Concentrations. The β-lactamase inhibitory properties of cephalosporin-phloroglucide esters VIII and IX as well as 7-(phloroglucidamido)cephalosporins X and XI were studied. Cephalosporins XV and XVI as well as clavulanic acid (XVII) were used in vitro as the reference compound. The average values of duplicate determinations and the ability of compounds to inhibit the hydrolysis of 3-[E-(2,4-dinitro)styryl]-(6R,7R)-7-(2-thienylacetamido)-3-cephem-4-carboxylic acid by β-lactamases from S. aureus 95 and Ps. aeruginosa 18S-H. Minimum protective concentrations (MPC) values were determined by the procedure of O'Callaghan ct al. [O'Callaghan C. H. ct al. Antimicrob. Agents Chemother. 1972, 1, 283] and are the lowest concentrations of β-lactams needed to protect the indicator from hydrolysis by β-lactamases under standard test conditions within 40 min. The hydrolysis of indicator was evidenced by the appearance of a distinct red color.

Data set [2] relates to S. aureus 95. Put plainly: Minimum inhibitory concentration, agar dilution, S. aureus 95. Type of data set: cell-based, Staphylococcus aureus 95. Conditions: Staphylococcus aureus, 95; agar dilution, average of duplicates; β-lactamase-producing, methicillin resistant organism; read-out: Minimum Inhibitory Concentration (MIC), S. aureus 95. As to the method: (§2) Determination of Minimum Inhibitory Concentrations. The screening experiments in vitro were carried out for antibacterial activities of the phloroglucide analogs II-VII, XII-XIV, bifunctional cephalosporins VIII and IX, as well as 7-(phloroglucidamido)cephalosporins X and XI. Cephalosporins XV and XVI were used as the reference compounds. The lowest concentrations of antibiotics needed for prevention of visible growth of microorganisms; reported as the average values of duplicate determinations. Minimum inhibitory concentrations (MIC) values obtained by use of an agar dilution method whereby organisms were deposited onto medicated agar plates by the replication device of Steers et al [Steers, F. et al. Antibiot. Chemother. 1959, 9, 307].

The subject of data set [3] is β-lactamase of PS. aeruginosa 18S-H. Briefly: Minimum protective concentration against β-lactamase of Ps. aeruginosa 18S-H. The note with it: protection of chromogenic cephem indicator from hydrolysis within 40 min, average of duplicates. In kind it is biochemical.
From the text: as §1

Data set [4] deals with PS. aerureus 18S-H. Briefly: Minimum inhibitory concentration, agar dilution, Ps. 18S-H. Type of data set: cell-based, Pseudomonas aeruginosa 18S-H. The note with it: Pseudomonas aeruginosa, 18SH, read-out: Minimum Inhibitory Concentration (MIC), PS. aerureus 18S-H. Here is the method:
as §2
On the technique in general: In agar dilution, organisms are placed on agar that contains the substance at set levels.

Data set [5] deals with C. albicans. Put plainly: Minimum inhibitory concentration, agar dilution, C. albicans. The note with it: Candida albicans; agar dilution, average of duplicate determinations; read-out: Minimum Inhibitory Concentration (MIC), C. albicans. Type of data set: cell-based. As to the method:
as §2

The subject of data set [6] is Ps. aerureus 1101-75. Briefly: Minimum inhibitory concentration, agar dilution, Ps. 1101-75. In kind it is cell-based, Pseudomonas aeruginosa. The note with it: Pseudomonas aeruginosa, 110175; agar dilution, average of duplicate determinations; read-out: Minimum Inhibitory Concentration (MIC), Ps. aerureus 1101-75. As to the method:
as §2

The subject of data set [7] is pathogenic microorganisms. Put plainly: Antibacterial activity in vitro (statements in words). Type of data set: cell-based. As to the method: as §2
Data set [8] deals with S. aureus FDA 209P. Put plainly: Minimum inhibitory concentration, agar dilution, S. aureus FDA 209P. In kind it is cell-based, Staphylococcus aureus FDA 209P. Here is the method:
as §2

Data set [9] deals with β-lactamases of S. aureus 95 and Ps. aeruginosa 18S-H. Briefly: Behaviour towards β-lactamases (statements in words). In kind it is biochemical.
From the text: as §1

Data set [10] can be described thus: Stability in the absence of β-lactamases in phosphate buffer solution. Type of data set: physicochemical. The note with it: 37° C., pH 6.5.

T1 sequence (P00807 25-281): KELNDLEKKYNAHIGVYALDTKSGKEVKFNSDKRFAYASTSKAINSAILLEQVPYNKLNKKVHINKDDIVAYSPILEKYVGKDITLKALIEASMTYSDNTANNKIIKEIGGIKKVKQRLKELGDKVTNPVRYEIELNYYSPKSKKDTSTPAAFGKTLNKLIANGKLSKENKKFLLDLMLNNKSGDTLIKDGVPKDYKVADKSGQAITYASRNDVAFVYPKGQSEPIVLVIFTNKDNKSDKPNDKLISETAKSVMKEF

As for `O=C(COc1ccccc1)N[C@@H]1C(=O)N2C(C(=O)O)=C(COC(=O)c3cccc(Cc4cc(Cl)cc(Cc5ccccc5O)c4O)c3O)CS[C@H]12` [VIII, 3-{3-[5-Chloro-2-hydroxy-3-(2-hydroxybenzyl)benzyl]-2-hydroxy-benzoyloxymethyl}-7-phenoxyacetamido-3-cephem-4-carboxylic Acid], in data set [1], the “Minimum Protective Concentration (MPC), β-lactamase of S. aureus 95” value came out at 7.08 µg/mL. The MIC is 1.2 mg/L (≈ 1.64 µM) in [2]; 1.24 mg/L (≈ 1.7 µM) in data set [4]; 5.86 mg/L (≈ 8.01 µM) in data set [5]; 0.98 mg/L (≈ 1.34 µM) in data set [6]; 0.41 mg/L (≈ 0.561 µM) in [8] (Staphylococcus aureus, FDA209P, agar dilution, average of duplicate determinations). Moreover, in data set [3], the “Minimum Protective Concentration (MPC), β-lactamase of PS. aeruginosa 18S-H” value was found to be 6.74 µg/mL. The “antibacterial activity in words” value in data set [7] is recorded as “broadened spectrum of antibacterial activity in vitro; also recorded: less activity against other pathogenic microorganisms; also recorded: phloroglucide-like antibacterial activity”. Also, the “antibacterial activity in words, S. aureus FDA 209P” value in [8] (compared with corresponding phloroglucides) was “greater antibacterial activity than the corresponding phloroglucides (II) and (III) against S. aureus FDA 209P”. For the same compound, the “hydrolysis by / stability towards β-lactamases, in words” value in [9] was “underwent hydrolysis to liberate their phloroglucidc components”.

`O=C(O)[C@H]1/C(=C/CO)O[C@@H]2CC(=O)N21` [XVII, clavulanic acid, reference compound]: the “Minimum Protective Concentration (MPC), β-lactamase of S. aureus 95” value in data set [1] turned out to be 0.38 µg/mL. The “Minimum Protective Concentration (MPC), β-lactamase of PS. aeruginosa 18S-H” value in data set [3] came to 3.00 µg/mL. The “β-lactam ring destructed (time)” value in [10] is given as not above 13 h.
